Patent publication US20240084354A1, “MEANS AND METHODS FOR REGULATING INTRACELLULAR TRAFFICKING OF SECRETORY OR CELL MEMBRANE-ANCHORED PROTEINS OF INTEREST” (HONING BIOSCIENCES, priority 2020, published 2024)
“Also recorded” adds a separate entry of the source.

How the values were obtained:
[1] = tested on: Primary CD8+ T or CD4/CD8+ T cells; test: Flow cytometry of GFP fluorescence in transduced primary T cells; type: cell-based, human
Procedure: T cells were isolated from leukocyte reduction system chamber (LRSC) from blood of healthy donors by negative selection using the EasySep Direct Human T cell isolation kit (STEM cells) or MACSxpress LRSC Pan T Cell Isolation Kit, human (Miltenyi) according to the manufacturer's instructions.
Primary CD8^+ T or CD4/CD8^+ T cells were plated into culture plates and transduced with said lentiviral particle at a MOI between 1 and 5 for 3 days.
Primary CD8^+ T or CD4/CD8^+ T cells were plated into culture plates for Flow cytometry assay.
To prevent cytokines released due to the possible presence of biotin in TexMacs buffer, 1 μg/mL of avidin was added to chelate biotin, starting from the day of transduction and following days of cell culture. […]
(§1) After incubation with biotin, the cells were immediately transfer on ice, to inhibit or slow down the traffic of the cargo, followed by centrifugation (300 g, 4° C., 5 minutes), washed twice in cold 1×PBS (300 g, 4° C., 5 minutes) and incubated with live/dead fixable staining (20 minutes, on ice; Thermofisher). The cells were then washed twice in cold PBS (300 g, 4° C., 5 minutes) or FACS buffer (1×PBS, 1% BSA, 0.05% sodium azide, 1 mL EDTA 0.5 M, filtered and kept at 4° C.) and, when not analyzed immediately, the cells were fixed in 3% PFA-1×PBS (10 minutes, RT) and washed twice in 1×PBS.

Jurkat cells = test: Flow cytometry of GFP fluorescence in transduced Jurkat cells; type: cell-based
Procedure: Transduced cells either received no treatment or were treated with 40 μM of biotin for 15 minutes, 60-75 minutes or overnight (0/N).
The RPMI medium was supplemented with 14 μg/mL of avidin to chelate the existing biotin present in the medium.
as §1
Transduced cells either received no treatment or were treated with 40 μM of biotin for 6 hours.
Transduction of HEK293FT and Jurkat cells were done using the same volume v/v of particles for each construct increasingly.
The expression of the cytokine was evaluated by measuring GFP using flow cytometry, three days later for HEK293FT and more than six days later for Jurkat cells. […]
For both types of cells, the expression of the cytokine was evaluated by measuring GFP using flow cytometry, 3 days later for HEK293FT and more than 6 days later for Jurkat cells. […]

HeLa cells [2] = test: Western blot (GFP revelation) of cell medium and cell extract of transduced HeLa cells; type: cell-based; details: 40 μM biotin, 60 minutes or O/N
Procedure: Cells for western blotting were treated either treated or not with 40 μM biotin or higher for 60 minutes or over-night (0/N).
After biotin treatment, the supernatant was recovered and centrifuged for removal of the detached or dead cells at 300 g, 4° C., for 5-10 minutes and kept on ice. While the cells (defined hereafter as pellet) were incubated with protein loading buffer 1×(5 mM Tris-HCl, pH 7.0, 30 mM ethylenediaminetetra acid (EDTA), pH 8.0; 0.01% bromophenol blue, 5% glycerol) for 5 minutes at room temperature, scratched and transfer to a new tube followed by denaturation at 95-100° C. for 10-20 minutes. The supernatant (from adherent or suspension cells) were incubated with StrataClean Resin (Agilent) to collect and concentrate protein present in the supernatant, for at least 2 hours at 4° C. with orbital agitation. […] Cytokines were detected using monoclonal anti-GFP (1/1000; Roche) in 5% skim milk in 0.1% Tween-20 PBS for 1 hour at room temperature or overnight (0/N) at 4° C., followed by the respective horseradish peroxidase (HRP) conjugated secondary polyclonal antibody (1/15000) in 5% skim milk in 0.1% Tween-20 PBS for 1 hour at room temperature. […]

CTLL-2 NFκB cells = test: IL-2-induced proliferation of CTLL-2 NFκB cells; type: cell-based; details: medium of transduced HeLa cells
Procedure: The relative proliferation and NFκB response measured by luminescence in CTLL2 NFκB was determined as described by Mock et al. (2020. Sci Rep. 10(1):3234). Briefly, CTLL2 NFκB were starved for about 24 hours, i.e., incubated for 24 hours without IL-2 to reduce the background due to the presence of IL-2 in the medium. After starvation, the cells (approximately 50 000 cells/well) in a cell culture 96-well plate (flat bottom) were incubated with the supernatant of the transduced cells either non-treated or treated with biotin diluted at 1/80 to a final volume of 200 μL. The cells were incubated for 72 hours at 37° C. and 5% of C02.
For CTLL-2 proliferation, CellTiter 96 Aqueous One Solution (Promega) was used according to the manufacturer's instructions. Briefly, 100 μL of the cells medium were removed and 20 μL of CellTiter 96 Aqueous One Solution (Promega) were added and incubated at least for 1 hours at 37° C. and 5% of CO2 before reading the absorbance at 490 nm. The relative proliferation or luminescence was determined by dividing the absorbance of treated cells by non-treated cells.

[3] = tested on: HEK blue IL-2 reporter cell line; test: Cytokine activity of medium of transduced HeLa cells on reporter cell line HEK blue IL-2; type: cell-based; details: no biotin
Procedure: Cells were treated with 40 μM biotin for 0 minute, 15 minutes, 60 minutes, 90 minutes, 120 minutes or 4320 minutes (=72 hours).
After treatment of the cells, the cell medium (1500 μL) was collected and centrifuged (300 g, 4° C., 5-10 minutes) to remove dead cells.
The cell medium of the RUSH-transduced cells was added into a cell culture 96-well plate (flat bottom) at a dilution 1/80 to 1/100 followed by the platting of HEK-Blue cells at approximately 50 000 cells/well. On the next day (after approximately 24 hours), 20 μL of the supernatant of these cells was transferred to a new plate and 180 μL of QUANTI-Blue substrate was added and incubated at 37° C. and 5% of C02 for 1-3 hours. The absorbance was then measured at 620 nm. The response ratio of the cytokines was determined by dividing the value of absorbance of the treated cells by non-treated cells. The values were them normalized to WT cells line.

HeLa cells [4] = test: Immunofluorescence of transduced HeLa cells (GFP/Cherry staining), with or without biotin; type: cell-based; details: 40 μM biotin
Procedure: HeLa cells were plated on a cell culture plate and transduced with said lentiviral particle at a MOI between 1 and 5 for 2 days.
Transduced HeLa cells were plated on coverslip for immunofluorescence assay.
Transduced cells either received no treatment or were treated with 40 μM of biotin.
Cells for immunofluorescence assay were either treated or not with 40 μM or higher of biotin for 15 minutes, 75 minutes or 16 hours (steady-state).
Cells coated onto coverslips were washed once in 1×PBS buffer, fixed in 3% of paraformaldehyde (PFA) for 10-15 minutes at room temperature, then washed twice and alternatively incubated with 50 mM of NH4Cl-1×PBS for 5 minutes at room temperature to quench free aldehydes. The cells were then permeabilized using a solution of PBS containing 0.5% Bovine Serum Albumin (BSA) and 0.05% saponin (Saponin, Sigma-Aldrich) for 15 minutes at room temperature. The coverslips were mounted in Mowiol supplemented with DAPI (4′,6-diamidino-2-phenylindole) for DNA staining.

Row | Substance | GFP-expressing cells upon addition of biotin ([1]; 40 μM biotin) | Efficiency of transduction / T cells expressing the cytokine ([1]; absence of biotin) [%] | GFP upon addition of biotin within 6 hours (flow cytometry) (Jurkat cells; 40 μM biotin, 6 hours) | Intracellular GFP expression without biotin treatment (flow cytometry) (Jurkat cells; no biotin) | Cytokine secretion in cell medium upon biotin addition (western blot) (HeLa cells [2]) | CTLL-2-NFκB cell proliferation after 4320 minutes of biotin (CTLL-2 NFκB cells; biotin 4320 minutes) | CTLL-2-NFκB cell proliferation, biotin for more than 60 minutes (CTLL-2 NFκB cells; biotin more than 60 minutes) | CTLL-2-NFκB cell proliferation in absence of biotin (CTLL-2 NFκB cells; no biotin) | Response of the reporter cell line in the absence of biotin [3] | Traffic and secretion of the cytokine upon biotin addition (immunofluorescence) (HeLa cells [4])
1 | CCL5-SBP-eGFPhibit: RUSH system with CCL5 fused to SBP and to eGFP containing HiBit tag (SEQ ID NO: 604) (VSGWRLFKKIS; HiBit tag) | decrease of GFP-expressing cells | 6 | showed a decrease in GFP-expressing cells | showed a proper intracellular GFP expression |  |  |  |  |  | 
2 | SPCCL5-IL-2-SBP-eGFP: RUSH system with Interleukin-2 fused to SBP and eGFP using the signal peptide of CCL5 (SEQ ID NO: 603) (MKVSAAALAVILIATALCAPASA; Signal peptide of CCL5) |  |  |  |  | the highest secretion was observed after O/N with biotin | seemed to better sustain cell activation | a significant increase in cell proliferation was observed | proliferated | induced a small response by the reporter cell line | After 15 minutes with biotin treatment, the cytokine was localized in the Golgi; also recorded: at 75 minutes, a high percentage of the cytokine still remained in the Golgi; also recorded: At 4 hours, most of the cytokine had been secreted
